These results are taken from PMC4501791, “Molecular Design, Synthesis and Trypanocidal Activity of Dipeptidyl Nitriles as Cruzain Inhibitors” (PLoS Neglected Tropical Diseases, 2015).

One data set deals with T1, cruzain (Trypanosoma cruzi, UniProt P25779).
T1 construct: made in house
Nature of the data set: biochemical. The conditions noted are these: 37°C, pH 5.5, substrate Z-FR-AMC.

The next data set concerns LLCMK2 cells. The data set can be described thus: Lysis of LLCMK2 host cells. The format is cell-based. Particulars: for cytotoxicity at 32 µM: Macaca mulatta, LLC-MK2, 32 μM, read-out: %cell lysis at 32 μM LLCMK2.
The test system of data set [1] is T. cruzi Tulahuen strain amastigotes. The data set can be described thus: Trypanocidal activity against amastigote forms in LLCMK2 cells, Tulahuen strain. The conditions noted are these: T. cruzi Tulahuen strain; for killing at 32 µM / EC50: Trypanosoma cruzi; for killing at 32 µM: LLC-MK2, 120 h, read-out: %cell lysis at 32 μM ama Tula; for killing at 32 µM / %cell lysis at 32 μM ama Tula: amastigote lysis, 5 days; for EC50: LLC-MK2, read-out: pEC50 ama Tula (converted); for EC50 / pEC50 ama Tula: amastigote. The class given is cell-based.
Procedure: (§1) The assays against amastigote forms were performed in LLCMK2 cells. Previously, the cells were cultivated in 96-wells microplates (10^3 cells/well). […] After this, the microplates were incubated at 37°C, in CO2 atmosphere, for 5 days. Then, 10 μL of FluoReporter lacZ/Galactosidase Quantitative Kit (Life Technologies) were added and after 30 minutes the fluorometric reaction was read in a microplate reader (Synergy H1, Biotek) at 386 nm excitation and 448 nm emission. For both assays the percentage of parasite lysis was determined from the following formula: %lysis = 100 –{[(X-PC)/(PC-NC)]x100}, where the optical density values of the samples (X), the positive controls (PC) and negative controls (NC) were used. Culture medium was used as positive control (PC) and medium with 0.6% DMSO (v/v) as negative control (NC). All assays were performed in triplicate with two independent experiments.

Data set [2] relates to T. cruzi CL-Brener strain amastigotes. The data set can be described thus: Trypanocidal activity against amastigote forms in LLCMK2 cells, CL-Brener strain. Particulars: 5 days; for killing at 32 µM: Trypanosoma cruzi, LLC-MK2, 120 h, amastigote lysis, read-out: %cell lysis at 32 μM ama Brener. The class given is cell-based.
Procedure: as §1
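Wherever pKi is given: fluorometric read-out of substrate hydrolysis at excitation 355 nm and emission 460 nm, initial rates over 5 min, Ki from nonlinear kinetic fits, duplicate runs.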

T1 sequence (P25779 123-337 limits assumed): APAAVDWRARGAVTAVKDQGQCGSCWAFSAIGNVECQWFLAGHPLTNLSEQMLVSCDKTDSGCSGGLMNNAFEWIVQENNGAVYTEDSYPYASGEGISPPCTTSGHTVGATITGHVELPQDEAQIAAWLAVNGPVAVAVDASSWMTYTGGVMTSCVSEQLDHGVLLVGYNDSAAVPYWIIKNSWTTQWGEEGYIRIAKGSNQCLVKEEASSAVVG
Procedure for cruzain: Enzyme kinetic assays were carried out at 37°C in 200 L of a solution containing 100 mM acetate buffer pH 5.5, 300 mM NaCl, 5 mM DTT (dithiothreitol), 5% v/v DMSO (dimethyl sulfoxide), 0.01% v/v Triton X-100 and 0.15 nM cruzain, using Corning® 96-well black flat bottom microplates. The rate of the reaction was monitored using a Biotek Synergy HT plate reader through the fluorescence emission at 460 nm (excitation at 355 nm) due to the hydrolysis of the substrate Z-Phe-Arg-7-amido-4-methylcoumarin (Z-FR-AMC, Sigma-Aldrich). The enzyme stock aliquot was rapidly thawed at 37°C and kept on ice until activation, in which it was incubated for 20 min. in the assay buffer (100 mM acetate pH 5.5 and 5 mM DTT) followed by additional 2 min. incubation with inhibitors before the reaction was started by the addition of the substrate.
Visual inspection and a pre-reading of plate wells were performed to check for possible precipitation and background fluorescence, respectively. Fluorescence emission spectra were also recorded for all inhibitors, using the same excitation wavelength (355 nm) as for the fluorometric assay. […] The reaction was started by the addition of varying concentrations of the substrate and the wells monitored for a total of 5 minutes of reaction. The initial velocities of the substrate hydrolysis under first-order reaction were calculated by Gen5 Biotek software based on the linear-regression coefficient from the fit to data of Relative Fluorescence Unit (mRFU) as a function of time (min).
Each experiment was performed in duplicates for each compound being tested. […] All inhibitors were evaluated in two different concentrations, which were chosen based on a previous screening (percentage of inhibition) at 1.7 μM substrate (~K M). […] SigmaPlot (v. 10.0) was employed for the non-linear fit and the kinetic parameters determination.

For `N#CCNC(=O)[C@H](CCCNC(=N)N)NC(=O)c1ccccc1` [Compound 13, (2S)-5-carbamimidamido-N-(cyanomethyl)-2-(phenylformamido)pentanamide], the melting point (commonly the temperature of the solid-liquid transition) lay within 117 to 118 °C. The inhibition constant Ki (commonly the equilibrium dissociation constant of an inhibitor or competing ligand from its target) at cruzain was 126000 nM.
Take `CC(C)C[C@H](NC(=O)OC(C)(C)C)C(=O)NCC#N` [Compound 27, tert-butyl N-[(1S)-1-[(cyanomethyl)carbamoyl]-3-methylbutyl]carbamate]: the cytotoxicity at 32 µM in the data set with LLCMK2 cells is 0%. In addition, the figures for the killing at 32 µM in data set [1] and in data set [2] were 0% and 19 ± 3%, respectively. At cruzain, this compound gave a Ki of 1260 nM.
`N#CCNC(=O)C1(NC(=O)c2ccccc2)CCCC1` [Compound 14, N-(1-[(cyanomethyl)carbamoyl]cyclopentyl)benzamide] returned a melting point of 165 to 166 °C. For the same compound, the cytotoxicity at 32 µM in the data set with LLCMK2 cells came to 18 ± 1%. In addition, in data set [1], the killing at 32 µM is 25 ± 4% and the EC50 is 200000 nM. In data set [2], the killing at 32 µM came to 9 ± 1%. The inhibition constant Ki on cruzain was 7940 nM.
On to `N#CCNC(=O)[C@H](Cc1ccccc1)NC(=O)c1cnccn1` [Compound 19, (2S)-N-(cyanomethyl)-3-phenyl-2-(pyrazin-2-ylformamido)propanamide], for which the cytotoxicity at 32 µM in the data set on LLCMK2 cells came to 14 ± 1%. Besides, in data set [1], the killing at 32 µM stood at 22 ± 7% and the EC50 was 79400 nM. For the same compound, the killing at 32 µM in data set [2] turned out to be 21 ± 8%. For the same compound, the inhibition constant Ki on cruzain is 1580 nM.
Regarding `N#CCNC(=O)[C@H](Cc1ccc(O)cc1)NC(=O)c1ccccc1` [Compound 10, (2S)-N-(cyanomethyl)-3-(4-hydroxyphenyl)-2-(phenylformamido)propanamide], the melting point was 209 to 210 °C. For the same compound, the cytotoxicity at 32 µM in the data set with LLCMK2 cells stood at 18 ± 3%. Besides, in data set [1], the killing at 32 µM amounted to 32 ± 4% and the EC50 was 200000 nM. In addition, the killing at 32 µM in data set [2] is 18 ± 1%. The same compound had a Ki at cruzain of 200 nM.
Consider `N#CCNC(=O)[C@H](Cc1ccccc1)NC(=O)OCc1ccccc1` [Compound 24, Benzyl N-[(1S)-1-[(cyanomethyl)carbamoyl]-2-phenylethyl]carbamate], for which the inhibition constant (Ki) on cruzain is 501 nM.
As to `CC(C)(C)OC(=O)N[C@@H](Cc1ccccc1)C(=O)NCC#N` [Compound 25, Tert-butyl-N-[(1S)-1-[(cyanomethyl)carbamoyl]-2-phenylethyl]carbamete], in the data set with LLCMK2 cells, the “%cell lysis at 32 μM LLCMK2” value was 31 ± 2%. In data set [1], the “%cell lysis at 32 μM ama Tula” value was found to be 37 ± 1% and the “pEC50 ama Tula” value is 4.1. In data set [2], the “%cell lysis at 32 μM ama Brener” value worked out at 23 ± 2%. Also, the pKi (as a rule, the negative decadic logarithm of the Ki, by convention in mol/L) on cruzain came out at 5.6.
Turning to `CC(C)(C#N)NC(=O)[C@H](Cc1ccccc1)NC(=O)c1ccccc1` [Compound 8, (2S)-N-(1-cyano-1-methylethyl)-3-phenyl-2-(phenylformamido)propanamide], the inhibition constant Ki on cruzain was 3160 nM.
For `N#CC1(NC(=O)C2(NC(=O)c3ccccc3)CCCC2)CC1` [Compound 37], the “%cell lysis at 32 μM LLCMK2” value with LLCMK2 cells was 26 ± 3%. In addition, in data set [1], the “%cell lysis at 32 μM ama Tula” value was found to be 34 ± 5% and the “pEC50 ama Tula” value is listed as 4.1. The “%cell lysis at 32 μM ama Brener” value in data set [2] stood at 8 ± 3%. Also, at cruzain, the pKi was 4.9.
Regarding `N#CCNC(=O)[C@H](Cc1ccccc1)NC(=O)c1cncc(Br)c1` [Compound 20, (2S)-2-[(5-bromopyridin-3-yl)formamido]-N-(cyanomethyl)-3-phenylpropanamide], the cytotoxicity at 32 µM in the data set with LLCMK2 cells amounted to 17 ± 1%. In addition, the results for the killing at 32 µM in data set [1] and in data set [2] were 0% and 25 ± 8%, respectively. Further, affinity at cruzain was put at a Ki of 251 nM.
`N#CC1(NC(=O)[C@H](Cc2ccccc2)NC(=O)c2cnccn2)CC1` [Compound 35, (2S)-N-(1-cyanocyclopropyl)-3-phenyl-2-(pyrazin-2-ylformamido)propanamide] displayed a melting point of 162 to 164 °C. For the same compound, the inhibition constant Ki at cruzain is 501 nM.
Consider `N#CCNC(=O)[C@H](Cc1ccccc1)NC(=O)c1ccncn1` [Compound 18, (2S)-N-(cyanomethyl)-3-phenyl-2-(pyrimidin-4-ylformamido)propanamide], for which the melting point was in the range of 171 to 173 °C. Moreover, the cytotoxicity at 32 µM in the data set with LLCMK2 cells amounted to 20 ± 1%. Further, in data set [1], the killing at 32 µM was found to be 17 ± 2% and the EC50 is 200000 nM. In addition, the killing at 32 µM in data set [2] came to 18 ± 1%. The compound further gave a Ki on cruzain of 1260 nM.
For `N#CC1(NC(=O)[C@H](Cc2ccccc2)NC(=O)c2ccccc2)CC1` [Compound 7, (2S)-N-(1-cyanocyclopropyl)-3-phenyl-2-(phenylformamido)propanamide], in data set [1], the killing at 32 µM was determined as 16 ± 10% and the EC50 is 126000 nM. The compound also gave a Ki at cruzain of 251 nM.
On to `N#CCNC(=O)[C@H](Cc1ccccc1)NC(=O)c1ccco1` [Compound 17, (2S)-N-(cyanomethyl)-2-(furan-2-ylformamido)-3-phenylpropanamide], for which the melting point is 176 to 179 °C. Moreover, the cytotoxicity at 32 µM with LLCMK2 cells is 24 ± 0.2%. Also, in data set [1], the killing at 32 µM came out at 36 ± 1% and the EC50 is 100000 nM. Besides, in data set [2], the killing at 32 µM turned out to be 21 ± 2%. On cruzain, this compound showed an inhibition constant Ki of 501 nM.
`CC(C)(C)C[C@H](NC(=O)c1ccccc1)C(=O)NC1(C#N)CC1` [Compound 32, (2S)-N-(1-cyanocyclopropyl)-4,4-dimethyl-2-(phenylformamido)pentanamide] came in with a melting point of 186 to 187 °C. Besides, at cruzain, the affinity corresponds to a Ki of 25100 nM.
For `N#Cc1cccc(C[C@H](NC(=O)c2ccccc2)C(=O)NC2(C#N)CC2)c1` [Compound 36, (2S)-N-(1-cyanocyclopropyl)-3-(3-cyanophenyl)-2-(phenylformamido)propanamide], the melting point lay in the range of 191 to 194 °C. This compound also had a Ki at cruzain of 3980 nM.
`Cn1nc(C(C)(C)C)cc1C(=O)N[C@@H](Cc1ccccc1)C(=O)NC1(C#N)CC1` [Compound 34, (2S)-2-[(5-tert-butyl-2-methylpyrazol-3-yl)formamido]-N-(1-cyanocyclopropyl)-3-phenylpropanamide]: the cytotoxicity at 32 µM with LLCMK2 cells turned out to be 17 ± 3%. The killing at 32 µM in data set [1] came out at 0%; in data set [2], 23 ± 3%. The compound further had a Ki on cruzain of 63.1 nM.
`Cn1nc(C(F)(F)F)cc1C(=O)N[C@@H](Cc1ccccc1)C(=O)NC1(C#N)CC1` [Compound 33, (2S)-N-(1-cyanocyclopropyl)-2-{[1-methyl-3-(trifluoromethyl)-1H-pyrazol-5-yl]formamido}-3-phenylpropanamide]: the melting point was in the range of 211 to 212 °C. Moreover, the killing at 32 µM in data set [2] turned out to be 22 ± 10%. The affinity on cruzain corresponds to a Ki of 398 nM.
Regarding `Cn1nc(C(C)(C)C)cc1C(=O)N[C@@H](Cc1ccccc1)C(=O)NCC#N` [Compound 21, (2S)-2-[(3-tert-butyl-1-methyl-1H-pyrazol-5-yl)formamido]-N-(cyanomethyl)-3-phenylpropanamide], the melting point is 160 to 162 °C. The Ki on cruzain was 63.1 nM.
Regarding `N#CCNC(=O)[C@H](Cc1ccccc1)NC(=O)c1cccs1` [Compound 16, (2S)-N-(cyanomethyl)-3-phenyl-2-(thiophen-2-ylformamido)propanamide], in the data set on LLCMK2 cells, the cytotoxicity at 32 µM came out at 19 ± 4%. The killing at 32 µM in data set [1] came to 30 ± 11%; in data set [2] it was 24 ± 2%. In addition, the EC50 in data set [1] is 63100 nM. At cruzain, this compound had a Ki of 794 nM.
Regarding `N#CCNC(=O)[C@H](Cc1cccc(Cl)c1)NC(=O)c1ccccc1` [Compound 9, (2S)-3-(3-chlorophenyl)-N-(cyanomethyl)-2-(phenylformamido)propanamide], the melting point lay in the range of 176 to 178 °C. The cytotoxicity at 32 µM in the data set on LLCMK2 cells was determined as 12 ± 1%. In data set [1], the killing at 32 µM came to 17 ± 2% and the EC50 was 100000 nM. In data set [2], the killing at 32 µM came to 24 ± 1%. Besides, the Ki on cruzain was 251 nM.
For the compound `CC(C)C[C@H](NC(=O)c1cc(C(C)(C)C)nn1C)C(=O)NC1(C#N)CC1` [Compound 30, (2S)-2-[(3-tert-butyl-1-methyl-1H-pyrazol-5-yl)formamido]-N-(1-cyanocyclopropyl)-4-methylpentanamide], the killing at 32 µM in data set [2] came to 11 ± 6%. For the same compound, at cruzain, the Ki is 25.1 nM.
Regarding `N#CCNC(=O)[C@H](Cc1ccc(OC(=O)c2ccccc2)cc1)NC(=O)c1ccccc1` [Compound 11, 4-[(2S)-2-[(cyanomethyl)carbamoyl]-2-(phenylformamido)ethyl]phenyl benzoate], the melting point was in the range of 254 to 256 °C. In the data set on LLCMK2 cells, the cytotoxicity at 32 µM was 8 ± 5%. In addition, in data set [1], the killing at 32 µM is 16 ± 6% and the EC50 was greater than 316000 nM. Also, the killing at 32 µM in data set [2] stood at 17 ± 1%. This compound also gave an inhibition constant (Ki) on cruzain of 1260 nM.
Regarding `Cn1nc(C(F)(F)F)cc1C(=O)N[C@@H](Cc1ccccc1)C(=O)NCC#N` [Compound 22], in the data set with LLCMK2 cells, the “%cell lysis at 32 μM LLCMK2” value stood at 19 ± 0.4%. In addition, in data set [1], the “%cell lysis at 32 μM ama Tula” value is listed as 48 ± 4% and the “pEC50 ama Tula” value was found to be 4.0. The “%cell lysis at 32 μM ama Brener” value in data set [2] came out at 20 ± 2%. Also, the pKi at cruzain is given as 6.3.
As for `CC(C)C[C@H](NC(=O)OC(C)(C)C)C(=O)NC1(C#N)CC1` [Compound 31, tert-butyl N-[(1S)-1-[(1-cyanocyclopropyl)carbamoyl]-3-methylbutyl]carbamate], the inhibition constant (Ki) at cruzain was 631 nM.
As for `N#CCNC(=O)[C@H](Cc1ccccc1)NC(=O)C(F)(F)F` [Compound 15, (2S)-N-(cyanomethyl)-3-phenyl-2-(trifluoroacetamido)propanamide], the affinity on cruzain, expressed as Ki, was 3980 nM.
In the case of `N#CCNC(=O)[C@H](Cc1ccccc1)NC(=O)c1cc(=O)[nH]c(=O)[nH]1` [Compound 23, (2S)-N-(cyanomethyl)-2-[(2,6-dioxo-1,2,3,6-tetrahydropyrimidin-4-yl)formamido]-3-phenyl propanamide], the “%cell lysis at 32 μM LLCMK2” value in the data set on LLCMK2 cells is given as 22 ± 5%. Besides, the “%cell lysis at 32 μM ama Tula” value in data set [1] turned out to be 0%. For the same compound, in data set [2], the “%cell lysis at 32 μM ama Brener” value is 27 ± 1%. The compound also had a pKi at cruzain of 5.9.
